According to US8518957B2, “Methanocarba adenosine derivatives, pharmaceutical compositions, and method of reducing intraocular pressure” (The United States of America, as represented by the …, priority 2009, dated 2013):
Read-outs that look alike come from different tables or passages of the source.

How the values were obtained:
human A1 AR [1] = biological target: T1, human A1 AR (Homo sapiens, UniProt P30542); conditions: cited from earlier work
T1 construct: expressed in transfected cells
T1 sequence (P30542 1-326): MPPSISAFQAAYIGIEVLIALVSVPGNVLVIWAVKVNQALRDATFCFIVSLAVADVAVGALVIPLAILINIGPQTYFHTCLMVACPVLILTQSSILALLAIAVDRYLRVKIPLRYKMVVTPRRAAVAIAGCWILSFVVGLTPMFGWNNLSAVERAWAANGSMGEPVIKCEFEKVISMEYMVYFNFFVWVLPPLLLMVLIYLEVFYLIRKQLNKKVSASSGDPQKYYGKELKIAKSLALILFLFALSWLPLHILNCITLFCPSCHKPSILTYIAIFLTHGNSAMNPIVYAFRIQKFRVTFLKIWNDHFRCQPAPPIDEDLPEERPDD

hA2AAR [2] = biological target: T2, hA2AAR (Homo sapiens, UniProt P29274); conditions: cited from earlier work
T2 construct: expressed in transfected cells

human A3AR [3] = biological target: T3, human A3AR (Homo sapiens, UniProt P0DMS8); conditions: at 10 μM, relative to NECA 10 μM; values from Tosh et al.; cited from earlier work
T3 construct: expressed in transfected cells
T3 sequence (P0DMS8 1-318): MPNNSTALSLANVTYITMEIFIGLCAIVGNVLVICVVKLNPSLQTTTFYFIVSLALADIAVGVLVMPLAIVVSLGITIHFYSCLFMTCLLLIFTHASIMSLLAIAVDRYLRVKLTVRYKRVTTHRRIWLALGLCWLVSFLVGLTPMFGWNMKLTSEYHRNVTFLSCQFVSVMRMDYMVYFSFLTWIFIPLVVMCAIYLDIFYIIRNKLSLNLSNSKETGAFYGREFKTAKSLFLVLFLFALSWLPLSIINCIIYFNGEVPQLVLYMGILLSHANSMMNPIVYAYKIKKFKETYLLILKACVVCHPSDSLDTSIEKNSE

hA2AAR [4] = biological target: T2, hA2AAR; assay: Radioligand binding at human A2A AR ([3H]CGS21680, membranes of HEK-293 cells)
Method: (§1) [^3H](2-[p-(2-Carboxyethyl)phenyl-ethylamino]-5′-N-ethylcarboxamido-adenosine) (37, [^3H]CGS21680, 40.5 Ci/mmol) and [^125I]N^6-(4-amino-3-iodobenzyl)adenosine-5′-N-methyluronamide (38, [^125I]I-AB-MECA, 2200 Ci/mmol) were purchased from Perkin-Elmer Life and Analytical Science (Boston, Mass.). Test compounds were prepared as 5 mM stock solutions in DMSO and stored frozen at −20° C.
(§2) CHO cells stably expressing the recombinant hA1 and hA3Rs, and HEK-293 cells stably expressing the hA2AAR were cultured in Dulbecco's modified Eagle medium (DMEM) and F12 (1:1) supplemented with 10% fetal bovine serum, 100 units/mL penicillin, 100 μg/mL streptomycin, and […] glutamine. In addition, 800 μg/mL geneticin was added to the A2A media, while 500 μg/mL hygromycin was added to the A1 and A3 media. After harvesting, cells were homogenized and suspended in PBS. Cells were then centrifuged at 240 g for 5 min, and the pellet was resuspended in 50 mM Tris-HCl buffer (pH 7.5) containing 10 mM MgCl2. The suspension was homogenized and was then ultra-centrifuged at 14,330 g for 30 min at 4° C. The resultant pellets were resuspended in Tris buffer, incubated with adenosine deaminase (3 units/mL) for 30 min at 37° C. The suspension was homogenized with an electric homogenizer for 10 sec, pipetted into 1 mL vials and then stored at −80° C. until the binding experiments were conducted. The protein concentration was measured using the BCA Protein Assay Kit from Pierce Biotechnology, Inc. (Rockford, Ill.).
(§3) Into each tube in the binding assay was added 50 μL of increasing concentrations of the test ligand in Tris-HCl buffer (50 mM, pH 7.5) containing 10 mM MgCl2, 50 μl, of the appropriate agonist radioligand, and finally 100 μL of membrane suspension. For the A1AR (22 μg of protein/tube) the radioligand used was [^3H]36 (final concentration of 3.5 nM). For the A2AAR (20 μg/tube) the radioligand used was [^3H]37 (10 nM). For the A3AR (21 μg/tube) the radioligand used was [^125I]38 (0.34 nM). Nonspecific binding was determined using a final concentration of 10 μM unlabeled 36 diluted with the buffer. The mixtures were incubated at 25° C. for 60 min in a shaking water bath. Binding reactions were terminated by filtration through Brandel GF/B filters under a reduced pressure using a M-24 cell harvester (Brandel, Gaithersburg, Md.). Filters were washed three times with 3 mL of 50 mM ice-cold Tris-HCl buffer (pH 7.5). Filters for A1 and A2AAR binding were placed in scintillation vials containing 5 mL of Hydrofluor scintillation buffer and counted using a Perkin Elmer Liquid Scintillation Analyzer (Tri-Carb 2810TR). Filters for A3AR binding were counted using a Packard Cobra II γ-counter. The Ki values were determined using GraphPad Prism for all assays.
(§4) [^3H](2-[p-(2-carboxyethyl)phenyl-ethylamino]-5′-N-ethylcarboxamido-adenosine) ([^3H]CGS21680, 40.5 Ci/mmol) and [^125I]N^6-(4-amino-3-iodobenzyl)adenosine-5′-N-methyluronamide ([^125I]I-AB-MECA, 2200 Ci/mmol) were purchased from PerkinElmer. Test compounds were prepared as 5-mM stock solutions in DMSO and stored frozen at −20° C.
(§5) Chinese hamster ovary (CHO) cells were generated by stably expressing the recombinant hA1 and hA3 and human embryonic kidney (HEK) 293 cells stably expressing the hA2AAR in DMEM and F12 (1:1) supplemented with 10% fetal bovine serum, 100 units/mL penicillin, 100 μg/mL streptomycin, and 2 μmol/mL glutamine. 800 μg/mL Geneticin were added to the A2A media and 500 μg/mL hygromycin to the A1 and A3 media. After harvesting the cells, they were homogenized with an electric homogenizer for 10 sec, pipetted them into 1-mL vials, and then stored them at −80° C. until the binding experiments were conducted. The protein concentration was measured with a BCA Protein Assay Kit from Pierce Biotechnology (Rockford, Ill.). […]

human A3AR [5] = biological target: T3, human A3AR; assay: Radioligand binding at human A3 AR ([125I]I-AB-MECA, membranes of CHO cells)
Method: Test compounds were prepared as 5 mM stock solutions in DMSO and stored frozen at −20° C.
as §2
as §3, with “For the A1AR (22 μg of protein/tube) the radioligand used was [^3H]36 (final concentration of 3.5 nM).” left out, “For the A3AR (21 μg/tube) the radioligand used was [^125I]38 (0.34 nM).” left out, “Filters for A1 and A2AAR binding were placed in scintillation vials containing 5 mL of Hydrofluor scintillation buffer and counted using a Perkin Elmer Liquid Scintillation Analyzer (Tri-Carb 2810TR).” left out
Test compounds were prepared as 5-mM stock solutions in DMSO and stored frozen at −20° C.
Chinese hamster ovary (CHO) cells were generated by stably expressing the recombinant hA1 and hA3 and human embryonic kidney (HEK) 293 cells stably expressing the hA2AAR in DMEM and F12 (1:1) supplemented with 10% fetal bovine serum, 100 units/mL penicillin, 100 μg/mL streptomycin, and 2 μmol/mL glutamine. 800 μg/mL Geneticin were added to the A2A media and 500 μg/mL hygromycin to the A1 and A3 media. After harvesting the cells, they were homogenized with an electric homogenizer for 10 sec, pipetted them into 1-mL vials, and then stored them at −80° C. until the binding experiments were conducted. The protein concentration was measured with a BCA Protein Assay Kit from Pierce Biotechnology (Rockford, Ill.).
Each tube in the binding assay contained 50 μL of increasing concentrations of the test ligand in Tris-HCl buffer (50 mM, pH 7.5) containing 10 mM MgCl2, 50 μL of the appropriate agonist radioligand, and 100 μL membrane suspension, added sequentially. […] For the A2AAR (20 μg/tube), the radioligand [^3H]CGS21680 was used (−10 nM). […] The mixtures were incubated at 25° C. for 60 min in a shaking water bath. The binding reactions were terminated by filtration through Brandel GF/B filters under a reduced pressure with a M-24 cell harvester (Brandel, Gaithersburg, Md.). Filters were washed three times with 3 mL 50-mM ice-cold Tris-HCl buffer (pH 7.5). […] The filters were counted for A3AR binding with a Packard Cobra II γ-counter (PerkinElmer). The Ki values were determined with GraphPad Prism for all assays.

human A3AR [6] = biological target: T3, human A3AR; assay: Cyclic AMP accumulation assay: inhibition of forskolin-stimulated cyclic AMP production in AR-transfected CHO cells; assay type: cell-based; conditions: at 10 μM, in comparison to the maximal effect of full agonist NECA at 10 μM
Method: Intracellular cyclic AMP levels were measured with a competitive protein binding method. […] CHO cells that expressed the recombinant human A3AR were harvested by trypsinization. After centrifugation and resuspended in medium, cells were planted in 24-well plates in 1.0 mL medium. After 24 h, the medium was removed and cells were washed three times with 1 mL DMEM, containing 50 mM HEPES, pH 7.4. […] After 45 min forskolin (10 μM) was added to the medium, and incubation was continued for an additional 15 min. […] The cell lysate was resuspended and stored at −20° C. For determination of cyclic AMP production, protein kinase A (PKA) was incubated with [^3H]cyclic AMP (2 nM) in K2HPO4/EDTA buffer (K2HPO4, 150 mM; EDTA, 10 mM), 20 μL of the cell lysate, and 30 μL 0.1 M HCl or 50 μL of cyclic AMP solution (0-16 pmol/200 μL for standard curve). Bound radioactivity was separated by rapid filtration through Whatman GF/C filters and washed once with cold buffer. Bound radioactivity was measured by liquid scintillation spectrometry.
Bound radioactivity was separated by rapid filtration through Whatman GF/C filters and washed the filters once with cold buffer. Bound radioactivity was measured with liquid scintillation spectrometry.

human A3AR [7] = biological target: T3, human A3AR; conditions: model compounds; values from Tosh et al. and Melman et al.; read-out: Affinity (Ki, nM), A3; cited from earlier work
human A1 AR [8] = biological target: T1, human A1 AR; assay: Radioligand binding at human A1 AR ([3H]NECA, membranes of CHO cells)
Method: as §1, §2, §3, §4, §5

[9] = inhibition of radioligand binding at 10 μM, values from Tosh et al.
[10] = at 10 μM, model compounds, values from Tosh et al. and Melman et al.
[11] = Example 7, agonist radioligand [125I]47, read-out: AR Affinity Ki, nM, A3

T2 sequence (P29274 whole entry): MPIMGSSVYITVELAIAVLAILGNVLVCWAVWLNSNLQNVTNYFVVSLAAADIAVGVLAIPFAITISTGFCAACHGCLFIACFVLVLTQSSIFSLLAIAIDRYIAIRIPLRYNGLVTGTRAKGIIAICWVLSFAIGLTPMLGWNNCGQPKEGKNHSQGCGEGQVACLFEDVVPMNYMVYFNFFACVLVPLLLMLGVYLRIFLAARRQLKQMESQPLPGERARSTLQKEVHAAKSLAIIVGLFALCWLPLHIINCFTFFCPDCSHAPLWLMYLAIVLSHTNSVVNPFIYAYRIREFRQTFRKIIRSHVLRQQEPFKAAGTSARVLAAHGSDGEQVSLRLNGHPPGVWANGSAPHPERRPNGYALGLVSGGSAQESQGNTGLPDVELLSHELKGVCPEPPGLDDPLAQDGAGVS

Row | inhibition at 10 µM (human A1 AR [8]) [%] | inhibition at 10 µM (hA2AAR [4]) [%] | Ki (human A3AR [5]; [11]) [nM] | SMILES | other results
1 |  |  |  | CNC(=O)C12CC1C(n1cnc3c(NCc4cccc(Cl)c4)nc(C#CCCC(=O)NCCNC(=O)CCCCC4SCC5NC(=O)NC54)nc31)C(O)C2O (stereo not shown) [Compound 2] | % inhibition, A1 (human A1 AR [1]; [9]): (1 ± 1%); % inhibition, A2A (hA2AAR [2]; [9]): (51 ± 2%); % Inhibition of cAMP formation at hA3 AR (human A3AR [3]): 84.5 ± 12.0%
2 |  |  |  | C#CCCCC#Cc1nc(NCc2cccc(Cl)c2)c2ncn(C3C(O)C(O)C4(C(=O)NC)CC34)c2n1 (stereo not drawn) [Compound 8, (1′S, 2′R, 3′S, 4′S, 5′S)-4′-[6-(3-Chlorobenzylamino)-2-(1,6-heptadiynyl)-9H-purin-9-yl]-2′,3′-dihydroxybicyclo[3.1.0]hexane-1′-carboxylic acid N-methylamide] | Ki (hA2AAR [4]; [3H]37, HEK293 cells, read-out: Affinity (Ki, nM), A2A): 4330 ± 500 nM; Ki (human A3AR [5]; [125I]38, CHO cells, read-out: Affinity (Ki, nM), A3): 23.6 ± 3.9 nM; % Inhibition of cAMP formation at hA3 AR (human A3AR [6]): 18.3 ± 7.6%
3 |  |  |  | CCCC#Cc1nc(NCc2cccc(Cl)c2)c2ncn(C3C(O)C(O)C4(C(=O)NC)CC34)c2n1 (stereo not shown) [Compound 104b] | % inhibition, A2A (hA2AAR [2]; [10]): (80%)
4 |  |  |  | CNC(=O)C12CC1C(n1cnc3c(NCc4cccc(C#CCCCCC(=O)NCCNC(C)=O)c4)nc(Cl)nc31)C(O)C2O (stereo not shown) [Compound 104c] | Ki (human A1 AR [1]; model compounds, values from Tosh et al. and Melman et al., read-out: Affinity (Ki, nM), A1): 181 nM; % inhibition, A2A (hA2AAR [2]; [10]): (80%); Ki (human A3AR [7]): 228 nM
5 | 38.4 | 4.9 | 38.1 ± 14.4 | CNC(=O)[C@@]12C[C@@H]1[C@@H](n1cnc3c(NCc4cn(C56CC7CC(CC(C7)C5)C6)nn4)nc(Cl)nc31)[C@H](O)[C@@H]2O [Compound 220, (1S,2R,3S,4R,5S)-4-(2-Chloro-6-((1-(adamantyl)-1H-1,2,3-triazol-4-yl)methylamino)-9H-purin-9-yl)-2,3-dihydroxy-N-methylbicyclo[3.1.0]hexane-1-carboxamide] | 
6 |  | 28.3 | 302 ± 26 | C#CCNc1nc(Cl)nc2c1ncn2[C@H]1[C@H](O)[C@H](O)[C@@H]2C[C@@H]21 [Compound 222, (1R,2R,3S,4R,5S)-4-(2-Chloro-6-(prop-2-ynylamino)-9H-purin-9-yl) bicycle[3.1.0]hexane-2,3-diol] | Ki (human A1 AR [8]; Example 7, agonist radioligand [3H]45, read-out: AR Affinity Ki, nM, A1): 5870 ± 830 nM
7 | 44.7 | 19.2 | 388 ± 170 | O=[N+]([O-])c1cc(-n2cc(CNc3nc(Cl)nc4c3ncn4[C@H]3[C@H](O)[C@H](O)[C@@H]4C[C@@H]43)nn2)ccc1F [Compound 223] | 
8 | 38.6 | 22.5 | 2190 ± 160 | O[C@@H]1[C@H](O)[C@@H]2C[C@@H]2[C@H]1n1cnc2c(NCc3cn(C45CC6CC(CC(C6)C4)C5)nn3)nc(Cl)nc21 [Compound 224] | 
